Laboratory results from patent US20210340177A1, “BIOACTIVE PEPTIDES HAVING HIGH BINDING AFFINITY TO HUMAN MUSCULAR NICOTINIC ACETYLCHOLINE RECEPTOR” (priority 2020, published 2021).

Experiments:
muscle cells = type: cell-based; conditions: for Contraction of muscle cells after the washing step (reversibility): incubation for 24 hours followed by a washing step
Description: The efficacy of peptides V0083091A (KKYK; SEQ ID NO: 1) and V0083092A (KWKK; […]. Muscle cells were incubated or treated without (control) or with compounds, for example, peptides V0083091A and V0083092A, and contraction of the muscle cells was evaluated after incubation for 5 hours, after incubation for 24 hours, or after incubation for 24 hours followed by a washing step.

[1] = system: Human epidermal keratinocytes (HEKs); assay: MTT assay on human epidermal keratinocytes in in vitro cultures; conditions: 24 hours after treatment
[2] = target: human muscular nicotinic acetylcholine receptor (HmnAChR) (Homo sapiens, UniProt P02708+Q04844); assay: Binding energy of peptides in the HmnAChR binding site over runs of genetic algorithm; conditions: Table 3, difference of binding energies (no unit printed in Table 3)
[3] = target: human muscular nicotinic acetylcholine receptor (HmnAChR) (human)
Chain of human muscular nicotinic acetylcholine receptor (HmnAChR) (human) (P02708 21-457, chain 1 of 4): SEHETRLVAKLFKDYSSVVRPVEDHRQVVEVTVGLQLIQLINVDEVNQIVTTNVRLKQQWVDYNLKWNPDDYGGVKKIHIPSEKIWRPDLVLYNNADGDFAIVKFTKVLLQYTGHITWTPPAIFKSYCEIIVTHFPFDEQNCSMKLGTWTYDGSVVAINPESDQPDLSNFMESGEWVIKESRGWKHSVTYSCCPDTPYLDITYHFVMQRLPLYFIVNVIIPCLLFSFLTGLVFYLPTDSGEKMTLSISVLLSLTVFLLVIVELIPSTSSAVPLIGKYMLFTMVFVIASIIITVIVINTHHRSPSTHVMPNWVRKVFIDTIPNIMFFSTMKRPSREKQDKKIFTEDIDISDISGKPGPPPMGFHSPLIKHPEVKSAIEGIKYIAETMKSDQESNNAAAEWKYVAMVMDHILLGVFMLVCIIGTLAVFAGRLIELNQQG
Chain of human muscular nicotinic acetylcholine receptor (HmnAChR) (human) (P11230 24-501, chain 2 of 4, further chain): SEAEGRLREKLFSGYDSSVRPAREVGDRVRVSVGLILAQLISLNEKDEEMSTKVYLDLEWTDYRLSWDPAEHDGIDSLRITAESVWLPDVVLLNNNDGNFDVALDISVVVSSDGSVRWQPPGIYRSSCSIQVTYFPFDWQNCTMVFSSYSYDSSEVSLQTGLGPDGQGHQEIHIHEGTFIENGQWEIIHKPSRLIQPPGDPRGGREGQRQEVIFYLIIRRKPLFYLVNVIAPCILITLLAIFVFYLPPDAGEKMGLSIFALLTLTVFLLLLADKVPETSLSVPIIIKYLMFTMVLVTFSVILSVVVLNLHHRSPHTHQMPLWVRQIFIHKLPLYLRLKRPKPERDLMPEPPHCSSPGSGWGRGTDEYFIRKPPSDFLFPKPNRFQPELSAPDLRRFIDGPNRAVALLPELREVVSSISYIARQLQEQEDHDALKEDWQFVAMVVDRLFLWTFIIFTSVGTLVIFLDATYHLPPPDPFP
Chain of human muscular nicotinic acetylcholine receptor (HmnAChR) (human) (Q07001 22-517, chain 3 of 4, further chain): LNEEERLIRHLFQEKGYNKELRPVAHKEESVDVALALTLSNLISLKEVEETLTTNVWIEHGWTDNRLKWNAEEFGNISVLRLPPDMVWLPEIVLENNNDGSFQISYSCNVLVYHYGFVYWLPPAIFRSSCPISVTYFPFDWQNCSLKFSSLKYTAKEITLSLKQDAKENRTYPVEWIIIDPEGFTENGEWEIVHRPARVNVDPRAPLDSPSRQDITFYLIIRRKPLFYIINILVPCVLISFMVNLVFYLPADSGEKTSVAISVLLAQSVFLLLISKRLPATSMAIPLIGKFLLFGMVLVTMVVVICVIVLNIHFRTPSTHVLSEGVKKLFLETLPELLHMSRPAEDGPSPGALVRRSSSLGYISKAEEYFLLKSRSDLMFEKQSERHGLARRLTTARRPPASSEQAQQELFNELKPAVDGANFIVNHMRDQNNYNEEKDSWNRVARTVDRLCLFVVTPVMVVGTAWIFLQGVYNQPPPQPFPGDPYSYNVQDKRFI
Chain of human muscular nicotinic acetylcholine receptor (HmnAChR) (human) (Q04844 21-493, chain 4 of 4, further chain): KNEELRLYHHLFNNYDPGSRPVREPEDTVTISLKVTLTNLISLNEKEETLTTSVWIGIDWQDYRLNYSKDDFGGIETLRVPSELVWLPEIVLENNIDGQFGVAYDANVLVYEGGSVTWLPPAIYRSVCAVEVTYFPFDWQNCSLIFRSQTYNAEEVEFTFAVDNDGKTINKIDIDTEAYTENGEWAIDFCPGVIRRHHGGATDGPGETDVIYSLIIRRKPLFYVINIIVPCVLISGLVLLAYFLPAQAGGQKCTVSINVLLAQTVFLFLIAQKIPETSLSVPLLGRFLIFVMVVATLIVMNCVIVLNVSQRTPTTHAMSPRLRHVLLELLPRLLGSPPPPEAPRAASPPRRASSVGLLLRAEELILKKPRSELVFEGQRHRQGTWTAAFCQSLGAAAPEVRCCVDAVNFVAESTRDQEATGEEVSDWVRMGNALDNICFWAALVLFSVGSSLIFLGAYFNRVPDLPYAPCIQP

Chain of human muscular nicotinic acetylcholine receptor (HmnAChR) (P02708 21-457): as the sequence (P02708 21-457, chain 1 of 4) above
Chain of human muscular nicotinic acetylcholine receptor (HmnAChR) (Q04844 21-493): as the sequence (Q04844 21-493, chain 4 of 4, further chain) above
Chain of human muscular nicotinic acetylcholine receptor (HmnAChR) (P11230 24-501 partner): as the sequence (P11230 24-501, chain 2 of 4, further chain) above
Chain of human muscular nicotinic acetylcholine receptor (HmnAChR) (Q07001 22-517 partner): as the sequence (Q07001 22-517, chain 3 of 4, further chain) above

Compound: C/C=C/C=C\CC/C=C/C(=O)NCC(C)C [spilanthol]
- Inhibition of contraction of muscle cells, effect size (muscle cells; 1 μM or 10 μM, 5 or 24 hours after incubation, p value<5%): 1.5-2
- Contraction of muscle cells after the washing step (reversibility) (muscle cells): inhibitory effect was lost

Compound: Lys-Lys-Tyr-Lys [Peptide V0083091A]
- Proliferation of the HEKs [1]: induced proliferation
- Inhibition effect on muscle cell contraction (muscle cells; 1 μM, observable after incubation for 24 hours): much less inhibition effect
- Contraction of muscle cells after the washing step (reversibility) (muscle cells): no clear recovery of the contraction power

Compound: dipeptide diaminobutyroyl benzylamide diacetate [SYN ®-AKE]
- (Best Result − Average) [2]: -3.01 kcal/mol

Compound: peptide V0083091A (KKYK; SEQ ID NO: 1)
- Binding Energy, All 100 Average [3]: -8.39 kcal/mol
- Binding Energy, Best Result [3]: -11.4 kcal/mol
- Binding Energy, Top 10 Average [3]: -10.2 kcal/mol
